Like-named read-outs stand apart in the source and are kept apart here. Square brackets hold non-standard residues; d marks the D form. Peptide text beside a SMILES is read from it.
What was measured:
[1] = system: C. glabrata clinical strains; assay: MIC, clinical yeast strains; type: cell-based, Candida glabrata; parameters: unit: µg/ml
In short: (§1)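 Broth microdilution in Mueller Hinton broth, inoculum adjusted to 5.0×10^5 cfu/ml, peptides tested at 0.125 to 128 μg/ml, 37° C for 20 to 24 hours. Yeast assays were run in potato dextrose broth. MIC was taken as the lowest concentration with no visible growth.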

[2] = system: Enterobacter cloacae clinical strains; type: cell-based; parameters: Minimum inhibitory concentration: unit: μg/ml; conditions: microdilution, Muller Hinton broth-cation adjusted, 0.02% BSA, 0.2% acetic acid
In short: as §1

[3] = system: Acinetobacter baumannii clinical strains; type: cell-based; parameters: Minimum inhibitory concentration: unit: μg/ml; conditions: microdilution, Muller Hinton broth-cation adjusted, 0.02% BSA, 0.2% acetic acid
In short: as §1

[4] = system: Streptococcus pneumoniae clinical strains; type: cell-based; parameters: Minimum inhibitory concentration: unit: μg/ml; conditions: microdilution, Muller Hinton broth-cation adjusted, 0.02% BSA, 0.2% acetic acid
In short: as §1

[5] = system: Staphylococcus aureus clinical strains; type: cell-based; parameters: Minimum inhibitory concentration: unit: μg/ml; conditions: microdilution, Muller Hinton broth-cation adjusted, 0.02% BSA, 0.2% acetic acid
In short: as §1

[6] = system: Proteus mirabilis clinical strains; type: cell-based; parameters: Minimum inhibitory concentration: unit: μg/ml; conditions: for Minimum inhibitory concentration: microdilution, Muller Hinton broth-cation adjusted, 0.02% BSA, 0.2% acetic acid
In short: as §1

[7] = system: Serratia marcescens clinical strains; type: cell-based; parameters: Minimum inhibitory concentration: unit: μg/ml; conditions: for Minimum inhibitory concentration: microdilution, Muller Hinton broth-cation adjusted, 0.02% BSA, 0.2% acetic acid
In short: as §1

[8] = system: Candida albicans clinical strains; assay: MIC, clinical yeast strains; type: cell-based; parameters: unit: μg/ml
In short: as §1

[9] = system: C. parapsilosis clinical strains; assay: MIC, clinical yeast strains; type: cell-based, Candida parapsilosis; parameters: unit: µg/ml
In short: as §1

[10] = system: C. quillermondiae clinical strains; assay: MIC, clinical yeast strains; type: cell-based, Candida quillermondiae; parameters: unit: μg/ml; conditions: C. quillermondiae clinical yeast strain 1
In short: as §1

[11] = system: Escherichia coli clinical strains; type: cell-based; conditions: microdilution, Muller Hinton broth-cation adjusted, 0.02% BSA, 0.2% acetic acid
In short: as §1

[12] = system: Pseudomonas aeruginosa clinical strains; type: cell-based; conditions: microdilution, Muller Hinton broth-cation adjusted, 0.02% BSA, 0.2% acetic acid
In short: as §1

[13] = system: Acinetobacter johnsonii clinical strains; type: cell-based; conditions: Acinetobacter johnsonii clinical strain 1; microdilution, Muller Hinton broth-cation adjusted, 0.02% BSA, 0.2% acetic acid
In short: as §1

[14] = system: Klebsiella pneumoniae clinical strains; type: cell-based; conditions: microdilution, Muller Hinton broth-cation adjusted, 0.02% BSA, 0.2% acetic acid
In short: as §1

[15] = system: all the bacteria and yeasts tested; type: cell-based
In short: as §1

SMILES: CC(C)C[C@@H](NC(=O)[C@H](N)CCCNC(=N)N)C(=O)N[C@H](CCCCN)C(=O)N[C@H](Cc1c[nH]c2ccccc12)C(=O)N[C@H](Cc1ccccc1)C(=O)N[C@H](CC(C)C)C(=O)N[C@H](CC(C)C)C(=O)N[C@H](Cc1ccccc1)C(=O)N[C@H](CCCNC(=N)N)C(=O)N[C@H](CCCCN)C(=O)N[C@H](CCCNC(=N)N)C(=O)O [Chain308D] (H-[dR][dL][dK][dW][dF][dL][dL][dF][dR][dK][dR]-OH)
- Minimum inhibitory concentration ([1]; C. glabrata clinical yeast strain 1): 16
- Minimum inhibitory concentration ([1]; C. glabrata clinical yeast strain 2): 16
- Minimum inhibitory concentration ([1]; C. glabrata clinical yeast strain 3): 16
- Minimum inhibitory concentration ([1]; C. glabrata clinical yeast strain 4): 16
- Minimum inhibitory concentration ([2]; Enterobacter cloacae clinical strain 1): 2
- Minimum inhibitory concentration ([2]; Enterobacter cloacae clinical strain 2): 2
- Minimum inhibitory concentration ([2]; Enterobacter cloacae clinical strain 3): 2
- Minimum inhibitory concentration ([2]; Enterobacter cloacae clinical strain 4): 2
- Minimum inhibitory concentration ([2]; Enterobacter cloacae clinical strain 5): 2
- Minimum inhibitory concentration ([3]; Acinetobacter baumannii clinical strain 1): 4
- Minimum inhibitory concentration ([3]; Acinetobacter baumannii clinical strain 2): 4
- Minimum inhibitory concentration ([3]; Acinetobacter baumannii clinical strain 3): 4
- Minimum inhibitory concentration ([3]; Acinetobacter baumannii clinical strain 4): 2
- Minimum inhibitory concentration ([3]; Acinetobacter baumannii clinical strain 5): 2
- Minimum inhibitory concentration ([4]; Streptococcus pneumoniae clinical strain 1): 8
- Minimum inhibitory concentration ([4]; Streptococcus pneumoniae clinical strain 2): 4
- Minimum inhibitory concentration ([4]; Streptococcus pneumoniae clinical strain 3): 8
- Minimum inhibitory concentration ([4]; Streptococcus pneumoniae clinical strain 4): 2
- Minimum inhibitory concentration ([4]; Streptococcus pneumoniae clinical strain 5): 4
- Minimum inhibitory concentration ([5]; Staphylococcus aureus clinical strain 1): 1
- Minimum inhibitory concentration ([5]; Staphylococcus aureus clinical strain 2): 2
- Minimum inhibitory concentration ([5]; Staphylococcus aureus clinical strain 3): 1
- Minimum inhibitory concentration ([5]; Staphylococcus aureus clinical strain 4): 2
- Minimum inhibitory concentration ([5]; Staphylococcus aureus clinical strain 5): 2
- Minimum inhibitory concentration ([6]; Proteus mirabilis clinical strain 1): >128
- Minimum inhibitory concentration ([6]; Proteus mirabilis clinical strain 2): 32
- Minimum inhibitory concentration ([6]; Proteus mirabilis clinical strain 3): 128
- Minimum inhibitory concentration ([6]; Proteus mirabilis clinical strain 4): >128
- Minimum inhibitory concentration ([6]; Proteus mirabilis clinical strain 5): >128
- MICs against Proteus mirabilis ([6]; clinical strains): 64 to 128 µg/mL
- Minimum inhibitory concentration ([7]; Serratia marcescens clinical strain 1): 128
- Minimum inhibitory concentration ([7]; Serratia marcescens clinical strain 2): 128
- Minimum inhibitory concentration ([7]; Serratia marcescens clinical strain 3): 64
- Minimum inhibitory concentration ([7]; Serratia marcescens clinical strain 4): >128
- Minimum inhibitory concentration ([7]; Serratia marcescens clinical strain 5): 128
- MICs against Serratia marcescens ([7]; clinical strains): 64 to 128 µg/mL
- Minimum inhibitory concentration ([8]; Candida albicans clinical yeast strain 1): 16
- Minimum inhibitory concentration ([8]; Candida albicans clinical yeast strain 2): 16
- Minimum inhibitory concentration ([8]; Candida albicans clinical yeast strain 3): 16
- Minimum inhibitory concentration ([8]; Candida albicans clinical yeast strain 4): 16
- Minimum inhibitory concentration ([8]; Candida albicans clinical yeast strain 5): 16
- Minimum inhibitory concentration ([9]; C. parapsilosis clinical yeast strain 1): 8
- Minimum inhibitory concentration ([9]; C. parapsilosis clinical yeast strain 2): 8
- Minimum inhibitory concentration ([9]; C. parapsilosis clinical yeast strain 3): 8
- Minimum inhibitory concentration ([9]; C. parapsilosis clinical yeast strain 4): 4
- Minimum inhibitory concentration [10]: 4
- Minimum inhibitory concentration ([11]; Escherichia coli clinical strain 1): 1
- Minimum inhibitory concentration ([11]; Escherichia coli clinical strain 2): 0.5
- Minimum inhibitory concentration ([11]; Escherichia coli clinical strain 3): 1
- Minimum inhibitory concentration ([11]; Escherichia coli clinical strain 4): 1
- Minimum inhibitory concentration ([11]; Escherichia coli clinical strain 5): 1
- Minimum inhibitory concentration ([12]; Pseudomonas aeruginosa clinical strain 1): 8
- Minimum inhibitory concentration ([12]; Pseudomonas aeruginosa clinical strain 2): 8
- Minimum inhibitory concentration ([12]; Pseudomonas aeruginosa clinical strain 3): 4
- Minimum inhibitory concentration ([12]; Pseudomonas aeruginosa clinical strain 4): 4
- Minimum inhibitory concentration ([12]; Pseudomonas aeruginosa clinical strain 5): 4
- Minimum inhibitory concentration [13]: 4
- Minimum inhibitory concentration ([14]; Klebsiella pneumoniae clinical strain 1): 4
- Minimum inhibitory concentration ([14]; Klebsiella pneumoniae clinical strain 2): 4
- Minimum inhibitory concentration ([14]; Klebsiella pneumoniae clinical strain 3): 4
- Minimum inhibitory concentration ([14]; Klebsiella pneumoniae clinical strain 4): 4
- Minimum inhibitory concentration ([14]; Klebsiella pneumoniae clinical strain 5): 4
- MICs against all the bacteria and yeasts tested [15]: 0.5 to 32 µg/mL

— patent publication US10457709B2, “Antimicrobial peptides, their variants and uses” (priority 2015, dated 2019)
